The test deals with HepG2 cells. The test can be described thus: Untargeted lipidomic analysis (UHPLC-MS, OPLS-DA). The format is cell-based, human. To be noted: 40 μM, 3 h, versus DMSO. As to the method: Figure 2 Development and characterization of the human ATGL inhibitor NG-497. (a) Structure and IC50 values of human ATGL inhibitors. (b) Dose-dependent inhibition of human ATGL by respective inhibitors. (c) ATGL activity was determined at the indicated substrate concentrations in the absence and presence of NG-497 (0.5 μM). Ki was determined by nonlinear regression analysis using GraphPad Prism. Lineweaver–Burk analysis of ATGL inhibition is shown in the inset. (d) Toxicity of NG-497 in HepG2 cells was determined after 24 h incubation at indicated concentrations. Cisplatin and DMSO were used as positive and negative controls, respectively. Cytotoxicity was determined using the Roche LDH Kit and calculated as relative LDH release compared to fully lysed cells. (e) Stability of NG-497 was analyzed via ultrahigh-performance liquid chromatography–mass spectrometry (UHPLC-MS) after incubation in human serum for 0 or 3 h at 37 °C. Atglistatin and a chemically related unstable compound were used as controls. […] NG-497 concentrations/well were determined at the indicated time points using UHPLC-MS. […] Statistical significance was determined via t test (*p < 0.05; **p < 0.01; ***p < 0.001) or ANOVA followed by Bonferroni post hoc test (^###p < 0.001). […] The detected 297 lipid species of both groups were analyzed with supervised multivariate analysis OPLS-DA and are shown as a loading plot. […]

In the case of `CCOc1ccc(-c2cc(OC)cc(C(=O)OC(C)C)n2)cc1` [NG-497], the “lipidomic changes (OPLS-DA top 25 contributing lipid species)” value is 20 of the top 25 hits were due to an increase of TAG species, while three DAG species were decreased.

For the origin of these results see publication PMC9011347, “Small-Molecule Inhibitors Targeting Lipolysis in Human Adipocytes” (Journal of the American Chemical Society, 2022).
